Test results as given in publication PMC4687028 (Journal of medicinal chemistry, 2015).

Tests used:
[1] = molecular target: T1, recombinant human aromatase (CYP19) (Homo sapiens, UniProt P11511); experiment: Inhibition of recombinant human aromatase; assay type: biochemical
T1 sequence (P11511 1-503): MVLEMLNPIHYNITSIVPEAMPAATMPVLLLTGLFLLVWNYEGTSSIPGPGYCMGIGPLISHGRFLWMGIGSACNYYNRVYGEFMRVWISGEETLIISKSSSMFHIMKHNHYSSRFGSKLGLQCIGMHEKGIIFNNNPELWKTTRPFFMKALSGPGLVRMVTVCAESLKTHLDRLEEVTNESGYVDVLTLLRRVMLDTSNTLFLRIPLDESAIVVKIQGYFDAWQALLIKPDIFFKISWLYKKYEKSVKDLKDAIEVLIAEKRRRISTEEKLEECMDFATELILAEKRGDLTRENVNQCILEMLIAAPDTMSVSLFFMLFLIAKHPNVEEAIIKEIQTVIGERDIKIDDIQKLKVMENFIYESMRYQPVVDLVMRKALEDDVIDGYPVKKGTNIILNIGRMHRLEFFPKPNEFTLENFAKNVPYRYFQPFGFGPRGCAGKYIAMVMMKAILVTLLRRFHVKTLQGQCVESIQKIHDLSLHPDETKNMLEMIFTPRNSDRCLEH

[2] = molecular target: T2, Recombinant CYP2A6 (Homo sapiens, UniProt P11509); experiment: Inhibition of recombinant CYP2A6; assay type: biochemical
T2 sequence (P11509 1-494): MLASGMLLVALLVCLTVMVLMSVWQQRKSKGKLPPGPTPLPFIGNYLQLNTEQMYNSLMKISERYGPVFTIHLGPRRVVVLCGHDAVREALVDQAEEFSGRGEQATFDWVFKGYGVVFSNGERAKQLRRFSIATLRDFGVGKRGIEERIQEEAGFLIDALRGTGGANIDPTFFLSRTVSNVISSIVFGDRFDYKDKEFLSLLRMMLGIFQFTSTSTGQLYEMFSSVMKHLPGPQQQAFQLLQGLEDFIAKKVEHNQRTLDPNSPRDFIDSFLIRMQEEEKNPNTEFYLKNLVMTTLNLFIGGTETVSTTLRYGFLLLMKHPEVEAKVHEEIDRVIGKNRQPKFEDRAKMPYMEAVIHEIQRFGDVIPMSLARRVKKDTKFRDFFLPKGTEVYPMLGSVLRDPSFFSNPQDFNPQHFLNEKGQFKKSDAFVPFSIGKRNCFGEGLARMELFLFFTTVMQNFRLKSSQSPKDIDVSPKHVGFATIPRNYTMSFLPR

[3] = molecular target: T3, recombinant human ER-α (Homo sapiens, UniProt P03372); experiment: ER-α competitor binding assay, fluorescence polarization, displacement of ES2; details: at the concentration of 100,000 nM
T3 sequence (P03372 1-595): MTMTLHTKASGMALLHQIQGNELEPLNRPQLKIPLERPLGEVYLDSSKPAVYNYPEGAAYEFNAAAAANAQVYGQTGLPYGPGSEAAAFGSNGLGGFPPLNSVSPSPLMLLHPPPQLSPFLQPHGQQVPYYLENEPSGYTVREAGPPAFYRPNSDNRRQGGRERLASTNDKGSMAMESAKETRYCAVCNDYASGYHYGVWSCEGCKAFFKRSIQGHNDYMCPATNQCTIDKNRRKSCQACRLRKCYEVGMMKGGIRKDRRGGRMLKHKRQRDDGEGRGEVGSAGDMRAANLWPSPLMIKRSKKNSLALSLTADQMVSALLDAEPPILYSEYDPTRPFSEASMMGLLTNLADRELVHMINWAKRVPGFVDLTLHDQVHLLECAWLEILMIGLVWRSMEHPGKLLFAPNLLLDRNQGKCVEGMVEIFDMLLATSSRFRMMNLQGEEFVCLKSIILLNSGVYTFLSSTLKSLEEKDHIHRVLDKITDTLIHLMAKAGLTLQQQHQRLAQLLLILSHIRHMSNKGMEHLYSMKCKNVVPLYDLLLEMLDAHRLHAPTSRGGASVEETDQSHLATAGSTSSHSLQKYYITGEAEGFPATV

[4] = molecular target: Recombinant CYP2D6 (Homo sapiens, UniProt P10635); details: previously published; cited from earlier work
Chain of Recombinant CYP2D6 (P10635 whole entry): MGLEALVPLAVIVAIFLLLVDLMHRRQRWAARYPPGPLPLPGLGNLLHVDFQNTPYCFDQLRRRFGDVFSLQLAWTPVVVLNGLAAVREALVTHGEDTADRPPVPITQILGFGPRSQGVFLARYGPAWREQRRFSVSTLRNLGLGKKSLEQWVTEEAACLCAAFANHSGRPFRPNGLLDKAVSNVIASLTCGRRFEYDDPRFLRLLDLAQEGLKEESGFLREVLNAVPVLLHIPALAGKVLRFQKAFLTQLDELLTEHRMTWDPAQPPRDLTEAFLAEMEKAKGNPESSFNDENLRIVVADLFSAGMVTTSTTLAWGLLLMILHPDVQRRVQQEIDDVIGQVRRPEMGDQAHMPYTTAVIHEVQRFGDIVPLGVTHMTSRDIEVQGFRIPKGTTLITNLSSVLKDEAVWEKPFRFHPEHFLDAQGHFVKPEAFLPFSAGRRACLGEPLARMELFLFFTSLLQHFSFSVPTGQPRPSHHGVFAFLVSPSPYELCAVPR

## CC/C(=C(/c1ccc(O)cc1)c1ccc(OCCN)cc1)c1ccc(O)cc1 [Compound 10, 4,4'-(1-(4-(2-Aminoethoxy)phenyl)but-1-ene-1,2-diyl)diphenol]
[1]; Ki 20.0 nM versus Ki […] nM
  Potency against aromatase (CYP19) relative to norendoxifen: 4 fold
[1]; other than CYP1A2, from Ki values
  Selectivity toward CYP19 versus all other CYP P450 enzymes tested: > 21 fold
[2]
  IC50: 6.73 ± 0.66 µM

## CC/C(=C(/c1ccccc1)c1ccc(OCCN)cc1)c1ccccc1 [Compound 18, 2-(4-(1,2-Diphenylbut-1-en-1-yl)phenoxy)ethan-1-amine]
[3]
  Percent ER competition, ER-α: 0% competition

## CC(C)/C(=C(/c1ccc(O)cc1)c1ccc(OCCN)cc1)c1ccccc1 [Compound 29d, 4-(1-(4-(2-Aminoethoxy)phenyl)-3-methyl-2-phenylbut-1-enyl)phenol]
[3]
  Percent ER competition, ER-α: 54% competition

## N#CC/C(=C(/c1ccc(O)cc1)c1ccc(OCCN)cc1)c1ccccc1 [Compound 40, 4-(4-(2-Aminoethoxy)phenyl)-4-(4-hydroxyphenyl)-3-phenylbut-3-enenitrile]
[3]
  Percent ER competition, ER-α: 48% competition

## NCCOc1ccc(/C(=C(\Cn2ccnc2)c2ccccc2)c2ccc(O)cc2)cc1 [Compound 41, 4-(1-(4-(2-Aminoethoxy)phenyl)-3-(1H-imidazol-1-yl)-2-phenylprop-1-en-1-yl)phenol]
[3]
  Percent ER competition, ER-α: 59% competition

## CC/C(=C(/c1ccc(O)cc1)c1ccc(OCCO)cc1)c1ccccc1 [Compound 48, 4-(1-(4-(2-Hydroxyethoxy)phenyl)-2-phenylbut-1-en-1-yl)phenol]
[3]
  Percent ER competition, ER-α: 62% competition

## CC/C(=C(/c1ccc(O)cc1)c1ccc(OCC(=O)O)cc1)c1ccccc1 [Compound 49, 2-(4-(1-(4-Hydroxyphenyl)-2-phenylbut-1-en-1-yl)phenoxy)acetic Acid]
[3]
  Percent ER competition, ER-α: 55% competition

## CC/C(=C(/c1ccc(O)cc1)c1ccc(OCCBr)cc1)c1ccccc1 [Compound 50, 4-(1-(4-(2-Bromoethoxy)phenyl)-2-phenylbut-1-en-1-yl)phenol]
[3]
  Percent ER competition, ER-α: 60% competition

## CC/C(=C(/c1ccc(O)cc1)c1ccc(OCCCl)cc1)c1ccccc1 [Compound 55a, 4-(1-(4-(2-Chloroethoxy)phenyl)-2-phenylbut-1-en-1-yl)phenol]
[3]
  Percent ER competition, ER-α: 62% competition

## CC/C(=C(/c1ccc(O)cc1)c1ccc(OCCN)cc1)c1ccccc1 [Norendoxifen]
[4]
  Recombinant CYP2D6 IC50 (nM): No inhibition
  Recombinant CYP2D6 Ki (nM): No inhibition
